Results reported in publication PMC12598805, “Crystal Structure–Activity Relationship of Some MeO Phenylacrylonitriles: Dual Antimicrobial–Cytotoxic Effects and in Silico Perspectives” (ChemistryOpen, 2025).
Converted amounts (≈) assume the structure as drawn. Where two headings read alike, the source gives them in different places.

Key:
[1] = system: human lung carcinoma (A549, CCL‐185) cells; experiment: Cytotoxicity, CCK8 cell viability; format: cell-based; conditions: for IC50: Homo sapiens, read-out: Cytotoxic activity IC50
Description: (§1) We investigated the cytotoxic effects of acrylonitrile derivatives 2(a–c) on human lung carcinoma (A549, CCL‐185) cells purchased from American Culture Collection and human breast carcinoma (MCF‐7) cells purchased from Republic of Turkey Ministry of Agriculture and Forestry Şap Institute, (HUKUK, 00092502), In addition, mouse fibroblast cells (L929, CCL‐1) purchased from American Culture Collection were used to observe the effects of the compounds on healthy cells. In 25 T Flask, A549 cells were grown in dulbecco's modified eagle's medium, MCF‐7, and L929 cells were grown in eagle's minimum essential medium (EMEM), 10% fetal bovine serum and 1% Penicillin‐Streptomycin at 37 °C in a 5% CO2 and 100% humidified incubator. Cell proliferation was checked every day. Cells were taken into the experiment when the cell density reached 70% to 80%. (See Supporting Information for experimental preparation of biological studies).
(§2) The compounds 2a, 2b, and 2c were dissolved in 99.8% Dimethyl sulfoxide (DMSO) respectively, as
(§3) 10 mM main stock. To prepare the doses of acrylonitrile compounds used in the experiment to be
(§4) applied to the cells, five different concentrations of 31.25; 62.5; 125; 250 and 500 μM were prepared
(§5) by diluting the main stock solutions (10 mM) with the medium selected according to the cells. 5-
(§6) Fluorouracil (5-FU) was selected as a positive control in the study. After the 5-FU main stock solution
(§7) was dissolved with DMSO to be 10 mM, the concentrations to be used were diluted with the selected
(§8) media and made ready for the experimental plan. The concentrations used for 5-FU were prepared in
(§9) the same doses used for acrylonitrile derivatives. For the negative control group, groups containing
(§10) only media and no substance were used. Prepared acrylonitrile compounds and 5-FU concentrations
(§11) were added to the wells in three replicates for each dose, and their effects on cell viability at 24 and 48
(§12) Trypan blue solution (Gibco, 1525061) was used to distinguish between living and dead cells in the
(§13) study. Trypan blue passes uncontrollably through the membrane of dead cells that have lost their cell
(§14) membrane integrity and stains the cell blue. Living cells, on the other hand, are not stained because
(§15) Live cell counts were performed using trypan blue using a
(§16) cell counter (Logos Luna II).
(§17) In order to detach the cells adhering to the flasks from the bottom, 500 μL of 0.25% Trypsin-EDTA
(§18) (Gibco, 15400054) solution was added and treated for five minutes.
(§19) detach from the bottom under an inverted microscope (Zeiss Primovert, Germany), medium containing
(§20) 10% FBS was added. After centrifugation at 300 g for 5 minutes and discarding the medium, 1 mL of
(§21) medium was added and the cells were seeded into 96-well culture dishes as 1x10^4 cells in 100 μL per
(§22) Cell Counting Kit 8 (CCK8; Medchem, 146436) was used to determine cell viability. After adding 20 μL
(§23) of CCK8 solution to each well in the dark, 96-well culture dishes were wrapped with aluminum foil and
(§24) kept in a CO2 incubator at 37 °C for 2 hr. Then, it was automatically read with a microplate reader
(§25) (Chromate) at 450 and 630 nm wavelengths. The following formula was used to determine cell
(§26) % Viability = (Sample Well−Blank) (Negative Control−Blank)×100 (1)
(§27) The half-maximal inhibitory concentration (IC50) was calculated as 50% cell death causing dose
(§28) compared to the control group. All data are given as the mean percent fraction of control ± SEM.
(§29) Statistical analysis was done by one-way analysis of variance (ANOVA), followed by Tukey’s multiple
(§30) comparison tests. IBM SPSS Statistics 22 was used to utilize statistical analysis. […]

[2] = system: human breast carcinoma (MCF‐7) cells; experiment: Cytotoxicity, CCK8 cell viability; format: cell-based; conditions: for IC50: Homo sapiens, MCF7, read-out: Cytotoxic activity IC50
Description: as §1, §2, §3, §4, §5, §6, §7, §8, §9, §10, §11, §12, §13, §14, §15, §16, §17, §18, §19, §20, §21, §22, §23, §24, §25, §26, §27, §28, §29, §30

[3] = system: mouse fibroblast cells (L929, CCL‐1); experiment: Cytotoxicity on healthy cells, CCK8 cell viability; format: cell-based
Description: as §1, §2, §3, §4, §5, §6, §7, §8, §9, §10, §11, §12, §13, §14, §15, §16, §17, §18, §19, §20, §21, §22, §23, §24, §25, §26, §27, §28, §29, §30

[4] = Cytotoxicity on healthy cells, CCK8 cell viability; format: cell-based, mouse; conditions: mouse, L929 mouse fibroblast cells, read-out: Cytotoxic activity IC50
Description: as §1, §2, §3, §4, §5, §6, §7, §8, §9, §10, §11, §12, §13, §14, §15, §16, §17, §18, §19, §20, §21, §22, §23, §24, §25, §26, §27, §28, §29, §30

[5] = system: Candida albicans (ATCC-10231); experiment: Agar diffusion, zone of inhibition; format: cell-based; conditions: C.albicans, antibiotics at 5 mg mL^−1
Description: (§31) The antibacterial and antifungal activities were reported utilizing the method described by the Clinical & Laboratory Standards Institute.^[ [31], [32] ^] Agar diffusion method was used to determine the antimicrobial activity of the synthesized substances. The media used were mueller hinton agar (MHA) for bacteria and sabouraud‐dextrose agar (SDA) for fungi (Merck), as recommended by the manufacturer.
(§32) The synthesized compounds were initially investigated for their antimicrobial activity to elucidate the potential therapeutic utility against various pathogenic microbes using the agar plate diffusion method. The compounds were tested at a concentration of 50 mg mL^−1, and the antibiotics (ampicillin, kanamycin, and amphotericin B) were used at 5 mg mL^−1. […] K.pneumoniae and B.cereus were resistant to ampicillin, while they were susceptible to kanamycin with inhibition values of 30 and 26 mm, respectively. No antimicrobial activity of the compounds was observed against E.faecalis, S.typhimurium, K.pneumoniae, and for the fungus compared to Amphotericin B (20 mm). […]
(§33) ATCC: American Type Culture Collection; NRRL: Northern Regional Research Laboratory The compounds 2(a-c) obtained could only be completely solubilised with dimethyl sulphoxide (DMSO) and the highest possible stock solutions of 50 mg.mL-1 were prepared. To these wells 50 μl of the previously prepared substances were transferred using sterile micropipette tips. For comparison, Ampicillin and kanamycin antibiotics for bacteria and Amphotericin B antibiotics for fungus were used as positive controls and DMSO was used as negative control. The prepared petri plates were kept at +4°C for about 1 hour and then the bacterial cultures were incubated at 37°C for 18-24 hours and mould cultures at 27-30°C for 48-72 hours. The zones formed were measured millimetrically with callipers. The experiments were performed with three repetitions. […]

[6] = system: Candida albicans (ATCC-10231); experiment: MBC/MFC by sub-culture from wells without growth; format: cell-based; conditions: ATCC10231, C.albicans
Description: (§34) ATCC: American Type Culture Collection; NRRL: Northern Regional Research Laboratory The compounds 2(a-c) obtained could only be completely solubilised with dimethyl sulphoxide (DMSO) and the highest possible stock solutions of 50 mg.mL-1 were prepared. […]
(§35) 3.1. Determination of Minimum Inhibition Concentration (MIC)
(§36) The minimum inhibition concentration (MIC) values of the compounds 2(a-c) against the test bacteria used in the study were determined according to the broth microdilution method.[1-2] MHB or SDB was used as test medium and bacterial and yeast suspensions were prepared at 0.5 Mc Farland concentration for each test bacteria. Double layer serial dilutions were prepared in "U" type 96-well microtiter plates. Medium+bacteria suspensions containing only medium in the first row, medium+bacteria in the second row and the final concentrations of the synthesised substances in the other rows between 25 mg.mL-1 and […] were added to the wells with a final volume of 200
(§37) μL. Ampicillin, Kanamycin and Amphotericin B standard antibiotics were used as positive controls.
(§38) Bacteria were incubated at 37±0.1 °C and C. albicans at 30±0.1 °C for 24-48 hours and the lowest concentration without growth was determined as MIC. Tests were performed in two parallel runs and mean values were given as a result. […]

[7] = system: Bacillus cereus (ATCC-10876); experiment: MBC by sub-culture from wells without growth; format: cell-based; conditions: B.cereus
Description: (§39) Bacillus cereus (ATCC-10876) […]
as §34, §35, §36, §37
Bacteria were incubated at 37±0.1 °C and C. albicans at 30±0.1 °C for 24-48 hours and the lowest concentration without growth was determined as MIC. Tests were performed in two parallel runs and mean values were given as a result. In order to estimate “the minimum bactericidal/fungicidal concentrations (MBC/MFC) of the synthesised acrylonitrile derivatives “needed to indicate […] killing of the original inoculum,” 10 μl was taken from the wells with no observed growth and further sub-cultured onto their agar media (MHA and SDA for bacterial and fungal strains, respectively).[3] […]

[8] = system: Bacillus cereus (ATCC-10876); experiment: Broth microdilution MIC; format: cell-based; conditions: B.cereus
Description: as §39, §34, §35, §36, §37, §38

[9] = system: Klebsiella pneumoniae (ATCC-70063); experiment: Agar diffusion, zone of inhibition; format: cell-based; conditions: K.pneumoniae, antibiotics at 5 mg mL^−1
Description: as §31, §32
Klebsiella pneumoniae (ATCC-70063)
as §33

[10] = system: Bacillus cereus (ATCC-10876); experiment: Agar diffusion, zone of inhibition; format: cell-based; conditions: B.cereus, antibiotics at 5 mg mL^−1
Description: as §31
The synthesized compounds were initially investigated for their antimicrobial activity to elucidate the potential therapeutic utility against various pathogenic microbes using the agar plate diffusion method. The compounds were tested at a concentration of 50 mg mL^−1, and the antibiotics (ampicillin, kanamycin, and amphotericin B) were used at 5 mg mL^−1. […] K.pneumoniae and B.cereus were resistant to ampicillin, while they were susceptible to kanamycin with inhibition values of 30 and 26 mm, respectively. No antimicrobial activity of the compounds was observed against E.faecalis, S.typhimurium, K.pneumoniae, and for the fungus compared to Amphotericin B (20 mm).
as §39, §33

O=c1[nH]cc(F)c(=O)[nH]1 [5‐FU, 5‐Fluorouracil, reference compound]
suppressive effect on cell proliferation / viability ([1]; A549, 24 h, 31.25 to 500 μM): did not show any suppressive effect | decrease in cell viability ([1]; A549, 48 h, 250 μM): 17% | decrease in cell viability ([1]; A549, 48 h, 500 μM): 77% | IC50 ([1]; A549, 24 h): > 500 µM | IC50 ([1]; A549, 48 h): 386 µM | IC50 ([2]; MCF‐7, 24 h): 250 µM | IC50 ([2]; MCF‐7, 48 h): 102 µM | decrease in cell viability ([2]; MCF‐7, 24 h, 31.25 μM): 23% | decrease in cell viability ([2]; MCF‐7, 24 h, 62.5 μM): 23% | decrease in cell viability ([2]; MCF‐7, 24 h, 125 μM): 34% | decrease in cell viability ([2]; MCF‐7, 24 h, 250 μM): 50% | decrease in cell viability ([2]; MCF‐7, 24 h, 500 μM): 76% | decrease in cell viability ([2]; MCF‐7, 48 h, 31.25 μM): 46% | decrease in cell viability ([2]; MCF‐7, 48 h, 62.5 μM): 47% | decrease in cell viability ([2]; MCF‐7, 48 h, 125 μM): 52% | decrease in cell viability ([2]; MCF‐7, 48 h, 250 μM): 74% | decrease in cell viability ([2]; MCF‐7, 48 h, 500 μM): 95% | decrease in cell viability ([3]; L929, 24 h, 31.25 μM): 45% | decrease in cell viability ([3]; L929, 24 h, 62.5 μM): 45% | decrease in cell viability ([3]; L929, 24 h, 125 μM): 51% | decrease in cell viability ([3]; L929, 24 h, 250 μM): 62% | decrease in cell viability ([3]; L929, 24 h, 500 μM): 93% | decrease in cell viability ([3]; L929, 48 h, 31.25 μM): 50% | decrease in cell viability ([3]; L929, 48 h, 62.5 μM): 64% | decrease in cell viability ([3]; L929, 48 h, 125 μM): 68% | decrease in cell viability ([3]; L929, 48 h, 250 μM): 80% | decrease in cell viability ([3]; L929, 48 h, 500 μM): 93% | IC50 at 24 h ([4]; L929, 24 h): 109 µM | IC50 at 48 h ([4]; L929, 48 h): 33 µM

C[C@@H]1[C@H](O)[C@@H](C)/C=C/C=C/C=C/C=C/C=C/C=C/C=C/[C@H](O[C@@H]2O[C@H](C)[C@@H](O)[C@H](N)[C@@H]2O)C[C@@H]2O[C@](O)(C[C@@H](O)C[C@@H](O)[C@H](O)CC[C@@H](O)C[C@@H](O)CC(=O)O[C@H]1C)C[C@H](O)[C@H]2C(=O)O [Amphotericin B, reference compound]
zone of inhibition [5]: 20 ± 0.71 mm | zone of inhibition at 5 mg/mL ([5]; Candida albicans, ATCC10231): 20 mm | MBC [6]: 250 µg/mL (≈ 271 µM)

NC[C@H]1O[C@H](O[C@H]2[C@H](O)[C@@H](O[C@H]3O[C@H](CO)[C@@H](O)[C@H](N)[C@H]3O)[C@H](N)C[C@@H]2N)[C@H](O)[C@@H](O)[C@@H]1O [Kanamycin, reference compound]
MBC [7]: 62.5 µg/mL (≈ 129 µM) | MIC [8]: 31.25 µg/mL (≈ 64.5 µM) | zone of inhibition [9]: 30 ± 0 mm | zone of inhibition ([9]; listed as kanamycin): 30 mm | zone of inhibition [10]: 26 ± 1.41 mm | zone of inhibition ([10]; listed as kanamycin): 26 mm
